In brackets after ≈: the same amount, converted by molar mass. Activity calls are given as the source filed them. The calls are words filed in the database; no cut-off is given here.
Legend:
Escherichia coli = assay: Antibacterial activity against Escherichia coli AB1157 at 50 ug/ml after 18 hrs by two-fold serial dilution method; format: functional, organism-based
Staphylococcus aureus [1] = assay: Antistaphylococcal activity against Staphylococcus aureus Newman after 18 hrs by two-fold serial dilution method; format: functional
Staphylococcus aureus [2] = assay: Antistaphylococcal activity against aminoglycosides/tetracycline-resistant Staphylococcus aureus NRS-1 after 18 hrs by two-fold serial dilution method; format: functional; conditions: NRS-1, 18 h
Staphylococcus aureus [3] = assay: Antistaphylococcal activity against erythromycin-resistant Staphylococcus aureus NRS-70 after 18 hrs by two-fold serial dilution method; format: functional; conditions: NRS-70, 18 h
Staphylococcus aureus [4] = assay: Antistaphylococcal activity against oxacillin/tetracycline-resistant Staphylococcus aureus NRS-100 after 18 hrs by two-fold serial dilution method; format: functional; conditions: NRS-100, 18 h
Staphylococcus aureus [5] = assay: Antistaphylococcal activity against gentamicin-resistant Staphylococcus aureus NRS-108 after 18 hrs by two-fold serial dilution method; format: functional; conditions: NRS-108, 18 h
Staphylococcus aureus [6] = assay: Antistaphylococcal activity against linezolid-resistant Staphylococcus aureus NRS-271 containing phage type E-MRSA 15 after 18 hrs by two-fold serial dilution method; format: functional; conditions: NRS-271, 18 h
[7] = Metabolic stability in Sprague-Dawley rat plasma after 0.5 to 24 hrs by LC-MS analysis; format: ADME, cell-free
Staphylococcus aureus [8] = assay: Metabolic stability in Staphylococcus aureus Newman at MIC after 12 hrs by LC-MS analysis; format: ADME, organism-based; conditions: in vivo
WiDr = assay: Cytotoxicity against human WiDr cells assessed as decrease in cell survival at 20 times MIC after 24 hrs by MTT assay; format: cell-based
SCLC-21H = assay: Cytotoxicity against human SCLC-21H cells assessed as decrease in cell survival at 20 times MIC after 24 hrs by MTT assay; format: cell-based
J82 = assay: Cytotoxicity against human J82 cells assessed as decrease in cell survival at 20 times MIC after 24 hrs by MTT assay; format: cell-based; conditions: j82, 24 h
HGC-27 = assay: Cytotoxicity against human HGC27 cells assessed as decrease in cell survival at 20 times MIC after 24 hrs by MTT assay; format: cell-based; conditions: hgc-27, 24 h
NCI-H23 = assay: Cytotoxicity against human H23 cells assessed as decrease in cell survival at 20 times MIC after 24 hrs by MTT assay; format: cell-based; conditions: nci-h23, 24 h
HEK-293T = assay: Cytotoxicity against HEK293T cells assessed as decrease in cell survival at 20 times MIC after 24 hrs by MTT assay; format: cell-based; conditions: human
Staphylococcus aureus [9] = assay: Antistaphylococcal activity against Staphylococcus aureus Newman treated with increasing concentration of test compound everyday for 12 hrs measured after 20 days by two-fold serial dilution method; format: functional
Staphylococcus aureus [10] = assay: Antistaphylococcal activity against erythromycin-resistant Staphylococcus aureus NRS-70 treated with increasing concentration of test compound everyday for 12 hrs measured after 20 days by two-fold serial dilution method; format: functional

Row | Compound | Activity (Escherichia coli) | MIC (Staphylococcus aureus [1]) | MIC (Staphylococcus aureus [2]) | MIC (Staphylococcus aureus [3]) | MIC (Staphylococcus aureus [4]) | MIC (Staphylococcus aureus [5]) | MIC (Staphylococcus aureus [6]) | Stability [7] | Stability (Staphylococcus aureus [8]) | Activity (WiDr) | Activity (SCLC-21H) | Activity (J82) | Activity (HGC-27) | Activity (NCI-H23) | Activity (HEK-293T) | MIC (Staphylococcus aureus [9]) | MIC (Staphylococcus aureus [10])
1 | CC(C)c1cc2c(cc1Br)[C@@]1(C)CCC[C@@](C)(C(=O)O)[C@@H]1C/C2=N\OCCNS(=O)(=O)c1ccc(C(F)(F)F)cc1 | inactive | 1.56 to 3.13 µg/mL (≈ 2.37 to 4.75 µM) | 0.78 to 1.56 µg/mL (≈ 1.18 to 2.37 µM) | 0.78 to 1.56 µg/mL (≈ 1.18 to 2.37 µM) | 0.78 to 1.56 µg/mL (≈ 1.18 to 2.37 µM) | 0.78 to 1.56 µg/mL (≈ 1.18 to 2.37 µM) | 0.78 to 1.56 µg/mL (≈ 1.18 to 2.37 µM) | Stable | Stable | Non-Toxic | Non-Toxic | Non-Toxic | Non-Toxic | Non-Toxic | Non-Toxic | – | –
2 | Cc1noc(C)c1S(=O)(=O)NCCO/N=C1\C[C@H]2[C@](C)(C(=O)O)CCC[C@]2(C)c2cc(Br)c(C(C)C)cc21 | inactive | 1.56 to 3.13 µg/mL (≈ 2.55 to 5.13 µM) | 1.56 to 3.13 µg/mL (≈ 2.55 to 5.13 µM) | 1.56 to 3.13 µg/mL (≈ 2.55 to 5.13 µM) | 3.13 to 6.25 µg/mL (≈ 5.13 to 10.2 µM) | 1.56 to 3.13 µg/mL (≈ 2.55 to 5.13 µM) | 1.56 to 3.13 µg/mL (≈ 2.55 to 5.13 µM) | Stable | Stable | Non-Toxic | Non-Toxic | Non-Toxic | Non-Toxic | Non-Toxic | Non-Toxic | 6.25 to 12.5 µg/mL (≈ 10.2 to 20.5 µM) | 6.25 to 12.5 µg/mL (≈ 10.2 to 20.5 µM)
3 | CC(C)c1cc2c(cc1Br)[C@@]1(C)CCC[C@@](C)(C(=O)O)[C@@H]1C/C2=N\OCCNS(=O)(=O)c1ccc(Br)s1 | inactive | 1.56 to 3.13 µg/mL (≈ 2.31 to 4.63 µM) | 1.56 to 3.13 µg/mL (≈ 2.31 to 4.63 µM) | 1.56 to 3.13 µg/mL (≈ 2.31 to 4.63 µM) | 1.56 to 3.13 µg/mL (≈ 2.31 to 4.63 µM) | 1.56 to 3.13 µg/mL (≈ 2.31 to 4.63 µM) | 1.56 to 3.13 µg/mL (≈ 2.31 to 4.63 µM) | – | – | – | – | – | – | – | – | – | –
4 | CC(C)c1cc2c(cc1Br)[C@@]1(C)CCC[C@@](C)(C(=O)O)[C@@H]1C/C2=N\OCCNS(=O)(=O)c1cccc(Cl)c1 | inactive | 0.78 to 1.56 µg/mL (≈ 1.25 to 2.49 µM) | 1.56 to 3.13 µg/mL (≈ 2.49 to 5 µM) | 0.78 to 1.56 µg/mL (≈ 1.25 to 2.49 µM) | 1.56 to 3.13 µg/mL (≈ 2.49 to 5 µM) | 1.56 to 3.13 µg/mL (≈ 2.49 to 5 µM) | 1.56 to 3.13 µg/mL (≈ 2.49 to 5 µM) | – | – | – | – | – | – | – | – | – | –
5 | CC(C)c1cc2c(cc1Br)[C@@]1(C)CCC[C@@](C)(C(=O)O)[C@@H]1C/C2=N\OCCNS(=O)(=O)c1ccc(Cl)c(C(F)(F)F)c1 | inactive | 0.78 to 1.56 µg/mL (≈ 1.12 to 2.25 µM) | 12.5 to 25 µg/mL (≈ 18 to 36 µM) | 0.78 to 1.56 µg/mL (≈ 1.12 to 2.25 µM) | > 50 µg/mL | 0.78 to 1.56 µg/mL (≈ 1.12 to 2.25 µM) | 25 to 50 µg/mL (≈ 36 to 72 µM) | – | – | – | – | – | – | – | – | – | –
6 | CC(C)c1cc2c(cc1Br)[C@@]1(C)CCC[C@@](C)(C(=O)O)[C@@H]1C/C2=N\OCCNS(=O)(=O)c1cc(C(F)(F)F)cc(C(F)(F)F)c1 | inactive | 0.78 to 1.56 µg/mL (≈ 1.07 to 2.14 µM) | > 50 µg/mL | 0.78 to 1.56 µg/mL (≈ 1.07 to 2.14 µM) | > 50 µg/mL | 0.78 to 1.56 µg/mL (≈ 1.07 to 2.14 µM) | > 50 µg/mL | – | – | – | – | – | – | – | – | – | –
7 | Cc1ccc(C)c(S(=O)(=O)NCCO/N=C2\C[C@H]3[C@](C)(C(=O)O)CCC[C@]3(C)c3cc(Br)c(C(C)C)cc32)c1 | inactive | 1.56 to 3.13 µg/mL (≈ 2.52 to 5.05 µM) | 3.13 to 6.25 µg/mL (≈ 5.05 to 10.1 µM) | 0.78 to 1.56 µg/mL (≈ 1.26 to 2.52 µM) | 1.56 to 3.13 µg/mL (≈ 2.52 to 5.05 µM) | 1.56 to 3.13 µg/mL (≈ 2.52 to 5.05 µM) | 3.13 to 6.25 µg/mL (≈ 5.05 to 10.1 µM) | – | – | – | – | – | – | – | – | – | –
8 | CC(C)c1cc2c(cc1Br)[C@@]1(C)CCC[C@@](C)(C(=O)O)[C@@H]1C/C2=N\OCCNS(=O)(=O)c1ccc(F)cc1 | inactive | 1.56 to 3.13 µg/mL (≈ 2.56 to 5.13 µM) | 1.56 to 3.13 µg/mL (≈ 2.56 to 5.13 µM) | 1.56 to 3.13 µg/mL (≈ 2.56 to 5.13 µM) | 1.56 to 3.13 µg/mL (≈ 2.56 to 5.13 µM) | 1.56 to 3.13 µg/mL (≈ 2.56 to 5.13 µM) | 1.56 to 3.13 µg/mL (≈ 2.56 to 5.13 µM) | – | – | – | – | – | – | – | – | – | –
9 | CC(C)c1cc2c(cc1Br)[C@@]1(C)CCC[C@@](C)(C(=O)O)[C@@H]1C/C2=N\OCCNS(=O)(=O)c1ccccc1F | inactive | 1.56 to 3.13 µg/mL (≈ 2.56 to 5.13 µM) | 1.56 to 3.13 µg/mL (≈ 2.56 to 5.13 µM) | 1.56 to 3.13 µg/mL (≈ 2.56 to 5.13 µM) | 3.13 to 6.25 µg/mL (≈ 5.13 to 10.3 µM) | 3.13 to 6.25 µg/mL (≈ 5.13 to 10.3 µM) | 1.56 to 3.13 µg/mL (≈ 2.56 to 5.13 µM) | – | – | – | – | – | – | – | – | – | –
10 | CC(C)c1cc2c(cc1Br)[C@@]1(C)CCC[C@@](C)(C(=O)O)[C@@H]1C/C2=N\OCCNS(=O)(=O)c1ccc(Cl)cc1 | inactive | 0.78 to 1.56 µg/mL (≈ 1.25 to 2.49 µM) | 1.56 to 3.13 µg/mL (≈ 2.49 to 5 µM) | 0.78 to 1.56 µg/mL (≈ 1.25 to 2.49 µM) | 1.56 to 3.13 µg/mL (≈ 2.49 to 5 µM) | 1.56 to 3.13 µg/mL (≈ 2.49 to 5 µM) | 1.56 to 3.13 µg/mL (≈ 2.49 to 5 µM) | – | – | – | – | – | – | – | – | – | –
11 | CC(C)c1cc2c(cc1Br)[C@@]1(C)CCC[C@@](C)(C(=O)O)[C@@H]1C/C2=N\OCCNS(=O)(=O)c1ccc(Cl)cc1Cl | inactive | 0.78 to 1.56 µg/mL (≈ 1.18 to 2.36 µM) | 0.78 to 1.56 µg/mL (≈ 1.18 to 2.36 µM) | 0.39 to 0.78 µg/mL (≈ 0.59 to 1.18 µM) | 0.78 to 1.56 µg/mL (≈ 1.18 to 2.36 µM) | 0.78 to 1.56 µg/mL (≈ 1.18 to 2.36 µM) | 0.78 to 1.56 µg/mL (≈ 1.18 to 2.36 µM) | – | – | – | – | – | – | – | – | – | –
12 | Cc1ccccc1S(=O)(=O)NCCO/N=C1\C[C@H]2[C@](C)(C(=O)O)CCC[C@]2(C)c2cc(Br)c(C(C)C)cc21 | inactive | 1.56 to 3.13 µg/mL (≈ 2.58 to 5.17 µM) | 1.56 to 3.13 µg/mL (≈ 2.58 to 5.17 µM) | 1.56 to 3.13 µg/mL (≈ 2.58 to 5.17 µM) | 3.13 to 6.25 µg/mL (≈ 5.17 to 10.3 µM) | 1.56 to 3.13 µg/mL (≈ 2.58 to 5.17 µM) | 1.56 to 3.13 µg/mL (≈ 2.58 to 5.17 µM) | – | – | – | – | – | – | – | – | – | –
